What was measured:
[1] = biological target: T1, recombinant human B1 receptors (Homo sapiens, UniProt P46663); test: Functional assay: antagonist potency by cytosolic calcium measurement (plate reader fluorimeter) in CHO-B1 cells, agonist LysDABK; assay type: cell-based; conditions: CHO-B1 cells, inhibition of LysDABK (EC80)-evoked [Ca2+]i elevation; read-out: B1 func.
T1 construct: host or cells: CHO (CHO-B1)
T1 sequence (P46663 1-353): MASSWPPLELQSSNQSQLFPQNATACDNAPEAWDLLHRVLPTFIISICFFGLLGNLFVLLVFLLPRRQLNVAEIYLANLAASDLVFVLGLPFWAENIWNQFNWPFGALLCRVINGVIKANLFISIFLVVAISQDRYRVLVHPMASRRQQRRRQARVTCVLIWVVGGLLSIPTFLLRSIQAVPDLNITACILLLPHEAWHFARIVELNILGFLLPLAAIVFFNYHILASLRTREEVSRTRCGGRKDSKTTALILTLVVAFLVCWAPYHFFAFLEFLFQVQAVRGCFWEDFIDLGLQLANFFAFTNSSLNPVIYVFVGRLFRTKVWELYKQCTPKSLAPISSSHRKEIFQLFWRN
Procedure, shortened: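 IC50 is the concentration giving half-maximal inhibition of the LysDABK (EC80) calcium response, fitted from at least three experiments. CHO cells stably expressing human B1 were dye-loaded, exposed to compound for 20-25 min, then read by fluo-4 fluorescence (ΔF/F) at 37 °C.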

[2] = biological target: T2, human recombinant bradykinin B1 receptor (Homo sapiens, UniProt P46663); test: Human recombinant bradykinin B1 receptor competitive radioligand binding; conditions: hB1 expressed in CHO cells, [3H]-[Des-Arg10] Kallidin radioligand; read-out: B1 binding
T2 construct: host or cells: CHO cells, clone hB1-A5
T2 sequence (P46663 1-353): T1 sequence (P46663 1-353)
Procedure, shortened: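 Membranes from CHO cells expressing hB1 (20 μg protein/tube) incubated 15 min at 25° C. with [3,4-prolyl-3,4-^3H(N)]-[Des-Arg^10] Kallidin; nonspecific binding defined with 10 μM Lys-des-Arg^9-Bradykinin. Bound label collected by filtration and counted. IC50 from ≥7-point curves in triplicate; Ki by Cheng-Prusoff.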

| Structure (SMILES) | IC50 [1] | Ki [2] |
| --- | --- | --- |
| Cc1nc(-c2c(Cl)c3ccccc3n2-c2ccc(CNC(=O)C3(NC(=O)C4CCCC4)CC3)cc2)no1 [Example 144, Cyclopentanecarboxylic acid (1-{4-[3-chloro-2-(5-methyl-[1,2,4]oxadiazol-3-yl)-indol-1-yl]-benzylcarbamoyl}-cyclopropyl)-amide] | 20 to 100 nM | 20 to 100 nM |
| Cc1noc(-c2cc3cc(F)ccc3n2-c2ccc(CNC(=O)C3(NC(=O)CC(F)(F)F)CC3)cc2)n1 [Example 101, 1-(3,3,3-Trifluoro-propionylamino)-cyclopropanecarboxylic acid 4-[5-fluoro-2-(3-methyl-[1,2,4]oxadiazol-5-yl)-indol-1-yl]-benzylamide] | < 20 nM | < 20 nM |
| Cc1nc(-c2c(Cl)c3ccccc3n2-c2ccc(CNC(=O)C3(NC(=O)c4cccnc4Cl)CC3)cc2)no1 [Example 153, 2-Chloro-N-(1-{4-[3-chloro-2-(5-methyl-[1,2,4]oxadiazol-3-yl)-indol-1-yl]-benzylcarbamoyl}-cyclopropyl)-nicotinamide] | < 20 nM | < 20 nM |
| Cc1nc(-c2c(Cl)c3ccccc3n2-c2ccc(CNC(=O)C3(NC(=O)C4CNC(=O)N4)CC3)cc2)no1 (stereo not shown) [Example 122, 2-Oxo-imidazolidine-4-carboxylic acid (1-{4-[3-chloro-2-(5-methyl-[1,2,4]oxadiazol-3-yl)-indol-1-yl]-benzylcarbamoyl}-cyclopropyl)-amide] | 20 to 100 nM | 20 to 100 nM |
| Cc1nc(-c2c(Cl)c3ccccc3n2-c2ccc(CNC(=O)C3(NC(=O)c4cc(C5CC5)on4)CC3)cc2)no1 [Example 165, 5-Cyclopropyl-isoxazole-3-carboxylic acid (1-{4-[3-chloro-2-(5-methyl-[1,2,4]oxadiazol-3-yl)-indol-1-yl]-benzylcarbamoyl}-cyclopropyl)-amide] | < 20 nM | < 20 nM |
| Cn1nnc(-c2c(Cl)c3ccccc3n2-c2ccc(CNC(=O)C3(NC(=O)CC(F)(F)F)CC3)cc2)n1 [Example 29, 1-(3,3,3,-Trifluoro-propionylamino)-cyclopropanecarboxylic acid 4-[3-chloro-2-(2-methyl-2H-tetrazol-5-yl)-indol-1-yl]-benzylamide] | < 20 nM | < 20 nM |
| Cn1nnc(-c2c(Cl)c3ccccc3n2-c2ccc(CNC(=O)C3(NC(=O)c4cncc(C(F)(F)F)c4)CC3)cc2)n1 [Example 30, N-(1-{4-[3-chloro-2-(2-methyl-2H-tetrazol-5-yl)-indol-1-yl]-benzylcarbamoyl}-cyclopropyl)-5-trifluoromethyl-nicotinamide] | < 20 nM | < 20 nM |
| Cc1nc(-c2cc3ccccc3n2-c2ccc(CNC(=O)C3(NC(=O)c4cncc(C(F)(F)F)c4)CC3)cc2)no1 [Example 82, N-(1-{4-[2-(5-Methyl-[1,2,4]oxadiazol-3-yl)-indol-1-yl]-benzylcarbamoyl}-cyclopropyl)-5-trifluoromethyl-nicotinamide] | < 20 nM | < 20 nM |
| Cc1nc(-c2c(Cl)c3ccccc3n2-c2ccc(CNC(=O)C3(NC(=O)c4ccoc4)CC3)cc2)no1 [Example 137, Furan-3-carboxylic acid (1-{4-[3-chloro-2-(5-methyl-[1,2,4]oxadiazol-3-yl)-indol-1-yl]-benzylcarbamoyl}-cyclopropyl)-amide] | < 20 nM | < 20 nM |
| Cc1nc(-c2c(Cl)c3ccccc3n2-c2ccc(CNC(=O)C3(NC(=O)c4ccc(C#N)cc4)CC3)cc2)no1 [Example 170, N-(1-{4-[3-Chloro-2-(5-methyl-[1,2,4]oxadiazol-3-yl)-indol-1-yl]-benzylcarbamoyl}-cyclopropyl)-4-cyano-benzamide] | 20 to 100 nM | < 20 nM |
| Cc1noc(-c2c(Cl)c3ccccc3n2-c2ccc(CNC(=O)C3(NC(=O)C(F)(F)F)CC3)cc2)n1 [Example 194, 1-(2,2,2-Trifluoro-acetylamino)-cyclopropanecarboxylic acid 4-[3-chloro-2-(3-methyl-[1,2,4]oxadiazol-5-yl)-indol-1-yl]-benzylamide] | < 20 nM | < 20 nM |
| COc1cc(C(=O)NC2(C(=O)NCc3ccc(-n4c(-c5noc(C)n5)cc5cc(F)ccc54)cc3)CC2)on1 [Example 47, 3-Methoxy-isoxazole-5-carboxylic acid (1-{4-[5-fluoro-2-(5-methyl-[1,2,4]oxadiazol-3-yl)-indol-1-yl]-benzylcarbamoyl}-cyclopropyl)-amide] | < 20 nM | < 20 nM |
| Cc1nc(-c2c(Cl)c3cc(Cl)ccc3n2-c2ccc(CNC(=O)C3(NC(=O)c4cccnc4Cl)CC3)cc2)no1 [Example 70, 2-Chloro-N-(1-{4-[3,5-dichloro-2-(5-methyl-[1,2,4]oxadiazol-3-yl)-indol-1-yl]-benzylcarbamoyl}-cyclopropyl)-nicotinamide] | < 20 nM | < 20 nM |
| Cc1nc(-c2c(Cl)c3ccccc3n2-c2ccc(CNC(=O)C3(NC(=O)c4ccc(F)c(C(F)(F)F)c4)CC3)cc2)no1 [Example 98, N-(1-{4-[3-Chloro-2-(5-methyl-[1,2,4]oxadiazol-3-yl)-indol-1-yl]-benzylcarbamoyl}-cyclopropyl)-4-fluoro-3-trifluoromethyl-benzamide] | 20 to 100 nM | < 20 nM |
| Cc1nc(-c2c(Cl)c3ccccc3n2-c2ccc(CNC(=O)C3(NC(=O)c4conc4C)CC3)cc2)no1 [Example 181, 3-Methyl-isoxazole-4-carboxylic acid (1-{4-[3-chloro-2-(5-methyl-[1,2,4]oxadiazol-3-yl)-indol-1-yl]-benzylcarbamoyl}-cyclopropyl)-amide] | < 20 nM | < 20 nM |
| COc1cc(C(=O)NC2(C(=O)NCc3ccc(-n4c(-c5nnnn5C)c(Cl)c5ccccc54)cc3)CC2)on1 [Example 7, 3-Methoxy-isoxazole-5-carboxylic acid (1-{4-[3-chloro-2-(1-methyl-1H-tetrazol-5-yl)-indol-1-yl]-benzylcarbamoyl}-cyclopropyl)-amide] | < 20 nM | < 20 nM |
| CCOC(=O)c1c(Cl)c2ccccc2n1-c1ccc(CNC(=O)C2(NC(=O)c3cc(OC)no3)CC2)cc1 [Example 34, 3-Chloro-1-{4-[({1-[(3-methoxy-isoxazole-5-carbonyl)-amino]-cyclopropane-carbonyl}-amino)-methyl]-phenyl}-1H-indole-2-carboxylic acid ethyl ester] | 20 to 100 nM | < 20 nM |

From patent US20130217702A1 (Richter Gedeon Nyrt., priority 2010, published 2013)
